Where two headings read alike, the source gives them in different places.
System: Pseudomonas aeruginosa
Experiment: prevention of microbial growth in cutting oil emulsions (Kutwell 30)
Assay type: cell-based
Conditions: 3.3% cutting oil emulsion (Kutwell 30), 28° C., read-out: concentration required to prevent microbial growth
Protocol: In running these tests, two-fold serial dilutions of 6% solutions of the compound in dimethylformamide was added to 3.3% cutting oil emulsions. The emulsions were prepared by diluting with water a commercially available cutting oil concentrate. The emulsions were inoculated with a culture of Pseudomonas aeruginosa and incubated at 28° C. on a rotary shaker. At weekly intervals, the emulsions were examined for bacteria by conventional streakplate methods. The emulsions were then reinoculated with Pseudomonas aeruginosa and reincubated.

[1] = 168 h, incubation period 1 week
[2] = 336 h, incubation period 2 weeks, reinoculated weekly
[3] = 504 h, incubation period 3 weeks, reinoculated weekly
[4] = 672 h, incubation period 4 weeks, reinoculated weekly

MIC [1]	MIC [2]	MIC [3]	MIC [4]	SMILES
< 32 µg/mL	< 32 µg/mL	32 µg/mL	32 µg/mL	C=CCOc1ccs[n+]1C
32 µg/mL	64 µg/mL	64 µg/mL	64 µg/mL	COc1ccs[n+]1C
< 32 µg/mL	< 32 µg/mL	< 32 µg/mL	< 32 µg/mL	C[n+]1sccc1OCc1ccccc1
< 32 µg/mL	32 µg/mL	32 µg/mL	32 µg/mL	COc1c(Br)cs[n+]1C

From US4262127A, “3-Alkoxy-2-alkylisothiazolium salts and their derivatives” (Givaudan Corporation, priority 1979, dated 1981)
